Test results as given in patent US20260209215A1, “GLYCINE DERIVATIVES WITH P2X4 RECEPTOR-BLOCKING ACTIVITY AS DIAGNOSTICS AND FOR THE TREATMENT OF PAIN, INFLAMMATION, CANCER, AND OTHER P2X4 RECEPTOR-RELATED DISEASES” (RHEINISCHE-FRIEDRICH-WILHELMS-UNIVERSITÄT BONN, priority 2022, published 2026).

Molecular target: T1, P2X4 receptor (Homo sapiens, UniProt Q99571)
T1 construct: expressed in transfected cells; host or cells: 1321N1 astrocytoma cells, retroviral vector pQCXIN, G418 selection, monoclones
T1 sequence (Q99571 1-388): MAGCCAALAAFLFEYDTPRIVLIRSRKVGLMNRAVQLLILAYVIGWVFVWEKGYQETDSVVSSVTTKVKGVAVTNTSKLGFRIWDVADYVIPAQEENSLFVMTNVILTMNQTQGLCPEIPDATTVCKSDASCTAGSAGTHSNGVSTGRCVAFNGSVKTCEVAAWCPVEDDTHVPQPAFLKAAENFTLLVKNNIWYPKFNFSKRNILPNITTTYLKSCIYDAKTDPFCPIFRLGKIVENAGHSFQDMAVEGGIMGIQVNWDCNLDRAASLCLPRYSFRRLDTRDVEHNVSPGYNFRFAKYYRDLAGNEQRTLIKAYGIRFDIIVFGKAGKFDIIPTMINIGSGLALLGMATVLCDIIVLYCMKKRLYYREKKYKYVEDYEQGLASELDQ
Assay: Measurement of Ca2+ influx in transfected 1321N1 astrocytoma cells (P2X4 inhibitory potency)
Format: cell-based
Conditions: agonist-mediated Ca2+ influx, FLUO-4, 1321N1 astrocytoma cells; antagonists added 30 min before agonist
Text: The rat, mouse, and human P2X4 DNA, respectively, were cloned into the retroviral vector pQCXIN. 1321N1 Astrocytoma cells were transfected with the DNA using a retroviral system as described previously. In brief, GP+envAM12 packaging cells were first transiently co-transfected with a retroviral vector to generate the retrovirus and with a vesicular stomatitis virus G protein (VSV-G) to pseudotype the virus and to increase their infection efficiency. The viruses containing the rat, mouse or human P2X4 receptor sequence were then used to create a stable astrocytoma cell line. P2X4 receptor-expressing cells were selected with G418 ([…]).
The selection of monoclones for rat and human P2X4 receptors was performed using the limited dilution method by plating the cells at very low cell densities (1 cell clone per well in 96-well plates). Cells were counted, and then several dilutions were made to obtain a concentration of […]. We subsequently added 100 µL of the diluted cell suspension into each well expecting to obtain on average 1 cell per well. After a few days the wells that contained single clones were labeled and transferred into 24 well plates. More than 20 clones were selected for each cell line and characterized in calcium influx assay.
Measurement of Ca^2+ influx in transfected 1321N1 astrocytoma cells
P2X receptor function was determined on the basis of agonist-mediated increases in cytosolic Ca^2+ concentration. The fluorescent Ca^2+chelating dye FLUO-4 was used as an indicator of the relative levels of intracellular Ca^2+ in a 96-well format using a fluorescence imaging plate reader (Novostar, BMG, Germany). Cells were grown to confluence in 96-well black-walled tissue culture plates and loaded with FLUO-4 AM ([…]) in Hank's balanced salt solution (HBSS, containing 10 mM HEPES, pH 7.3, and 1% Pluronic® F127) for 1 h at 23° C. After incubation, the loaded cells were washed with the same buffer to remove extracellular FLUO-4 AM. Compound solutions were prepared in HBSS (containing 20 mM HEPES, pH 7.3) or DMSO depending on their solubility. […] Fluorescence intensity was measured at 520 nm for 30 s at 0.4 s intervals. Buffer or test compounds were injected sequentially into separate wells using the automatic pipetting device. At least three independent experiments were performed in triplicate or duplicate. Antagonists were added 30 min before the addition of agonists. The assays were performed in a final volume of 200 μL. Compounds were tested at 7-8 different concentrations spanning three orders of magnitude of concentrations. Statistical significances were calculated using the unpaired two-tailed t-test.

Structure (SMILES)	IC50 [nM]
O=C(CNc1cc(-c2nc(Cl)ns2)ccc1Cl)N1CCc2c(O)cccc21 [Example 39, 2-((2-chloro-5-(3-chloro-1,2,4-thiadiazol-5-yl)phenyl)amino)-1-(4-hydroxyindolin-1-yl) ethan-1-one]	20 to 39
Cc1nsc(-c2ccc(N3CCCC3)c(NCC(=O)N3CCc4c(OCC(C)(C)O)cccc43)c2)n1 [Example 24, 1-(4-(2-hydroxy-2-methylpropoxy)indolin-1-yl)-2-((5-(3-methyl-1,2,4-thiadiazol-5-yl)-2-(pyrrolidin-1-yl)phenyl)-amino)ethan-1-one]	0.1 to 19
Cc1ccc(-c2ccc(C)c(NCC(=O)N3CCc4c(OCC(C)(C)O)cccc43)c2)nc1 [Example 117, 1-(4-(2-hydroxy-2-methylpropoxy)indolin-1-yl)-2-((2-methyl-5-(5-methylpyridin-2-yl)phenyl)amino)ethan-1-one]	40 to 69
COc1ccc(-c2nc(C)ns2)cc1NCC(=O)c1c[nH]c2c3c(ccc12)CCC3 [Example 104, 2-((2-methoxy-5-(3-methyl-1,2,4-thiadiazol-5-yl)phenyl)amino)-1-(1,6,7,8-tetrahydrocyclopenta[g]indol-3-yl)ethan-1-one]	20 to 39
COc1ccc(-c2nc(C)ns2)cc1NCC(=O)c1c[nH]c2c(OC)cccc12 [Example 93, 1-(7-methoxy-1H-indol-3-yl)-2-((2-methoxy-5-(3-methyl-1,2,4-thiadiazol-5-yl)phenyl)-amino)ethan-1-one]	0.1 to 19
Cc1nsc(-c2ccc(C)c(NCC(=O)c3cn4c5c(cccc35)OCC(C)(O)C4)c2)n1 (stereo not drawn) [Example 105, 1-(3-hydroxy-3-methyl-3,4-dihydro-2H-[1,4]oxazepino[2,3,4-hi]indol-7-yl)-2-((2-methyl-5-(3-methyl-1,2,4-thiadiazol-5-yl)phenyl)-amino)ethan-1-one]	20 to 39
Cc1ccc(-c2ccc(C)c(NCC(=O)N3CCc4c(-c5c[nH]cn5)cccc43)c2)o1 [Example 73, 1-(4-(1H-imidazol-4-yl)indolin-1-yl)-2-((2-methyl-5-(5-methylfuran-2-yl)phenyl)amino)ethan-1-one]	40 to 69
COc1ccc(-c2nc(C)ns2)cc1NCC(=O)n1ccc2cc(F)ccc21 [Example 6, 1-(5-fluoro-1H-indol-1-yl)-2-((2-methoxy-5-(3-methyl-1,2,4-thiadiazol-5-yl)phenyl)amino-) ethan-1-one]	70 to 99
CCc1nsc(-c2ccc(C)c(NCC(=O)N3CCc4c(N5CCNCC5)cccc43)c2)n1 [Example 72, 2-((5-(3-ethyl-1,2,4-thiadiazol-5-yl)-2-methylphenyl)amino)-1-(4-(piperazin-1-yl)indolin-1-yl)ethan-1-one]	20 to 39
Cc1ccc(-c2ccc(C)c(NCC(=O)N3CCc4c(CO)cccc43)c2)o1 [Example 28, 1-(4-(hydroxymethyl)indolin-1-yl)-2-((2-methyl-5-(5-methylfuran-2-yl)phenyl)amino)ethan-1-one]	0.1 to 19
CCc1noc(-c2ccc(C)c(NCC(=O)c3cn(C)c4ccccc34)c2)n1 [Example 111, 2-((5-(3-ethyl-1,2,4-oxadiazol-5-yl)-2-methylphenyl)amino)-1-(1-methyl-1H-indol-3-yl)ethan-1-one]	40 to 69
Cc1nsc(-c2ccc(C)c(NCC(=O)N3CCc4c(NC(=O)[C@H](O)[C@@H](O)C(=O)O)cccc43)c2)n1 [Example 82, (2R,3R)-2,3-dihydroxy-4-((1-((2-methyl-5-(3-methyl-1,2,4-thiadiazol-5-yl)phenyl)-glycyl)indolin-4-yl)amino)-4-oxobutanoic acid]	70 to 99
COC(=O)C1CN(C(=O)CNc2cc(-c3nc(C)ns3)ccc2C)c2ccccc21 (stereo not drawn) [Example 57, methyl 1-((2-methyl-5-(3-methyl-1,2,4-thiadiazol-5-yl)-phenyl)glycyl)indoline-3-carboxylate]	> 100
COc1ccc2c(C(=O)CNc3cc(-c4nc(C)ns4)ccc3C)c[nH]c2n1 [Example 95, 1-(6-methoxy-1H-pyrrolo[2,3-b]pyridin-3-yl)-2-((2-methyl-5-(3-methyl-1,2,4-thiadiazol-5-yl)phenyl)amino)ethan-1-one]	0.1 to 19
O=C(CNc1cccc(-c2ccccn2)c1)c1c[nH]c2cc(F)c(F)cc12 [Example 122, 1-(5,6-difluoro-1H-indol-3-yl)-2-((3-(pyridin-2-yl)phenyl)amino)ethan-1-one]	> 100
Cc1ccc(-c2ccc(Cl)cn2)cc1NCC(=O)N1CCc2c(OCC(C)(C)O)cccc21 [Example 115, 2-((5-(5-chloropyridin-2-yl)-2-methylphenyl)amino)-1-(4-(2-hydroxy-2-methyl-propoxy)-indolin-1-yl)ethan-1-one]	40 to 69
CCc1noc(-c2ccc(OC)c(NCC(=O)c3c[nH]c4cc(OC)ccc34)c2)n1 [Example 96, 2-((5-(3-ethyl-1,2,4-oxadiazol-5-yl)-2-methoxyphenyl)amino)-1-(6-methoxy-1H-indol-3-yl)ethan-1-one]	0.1 to 19
CCc1noc(-c2ccc(OC)c(NCC(=O)N3CCc4ccc(Br)cc43)c2)n1 [Example 9, 1-(6-bromoindolin-1-yl)-2-((5-(3-ethyl-1,2,4-oxadiazol-5-yl)-2-methoxyphenyl)amino) ethan-1-one]	40 to 69

Next, values leading:

IC50 [nM]	Structure (SMILES)
20 to 39	COc1ccc2c(n1)CCN2C(=O)CNc1cc(-c2nc(C)ns2)ccc1C [Example 42, 1-(5-methoxy-2,3-dihydro-1H-pyrrolo[3,2-b]pyridin-1-yl)-2-((2-methyl-5-(3-methyl-1,2,4-thiadiazol-5-yl)phenyl)-amino)ethan-1-one]
20 to 39	Cc1nsc(-c2ccc(C)c(NCC(=O)N3CCc4c(C(C)O)cccc43)c2)n1 (stereo not drawn) [Example 29, 1-(4-(1-hydroxyethyl)indolin-1-yl)-2-((2-methyl-5-(3-methyl-1,2,4-thiadiazol-5-yl)phenyl)amino)ethan-1-one]
0.1 to 19	Cc1nsc(-c2ccc(C)c(NCC(=O)N3CCc4c3cccc4N3C(=O)C=CC3=O)c2)n1 [Example 79, 1-(1-((2-methyl-5-(3-methyl-1,2,4-thiadiazol-5-yl)phenyl)-glycyl)indolin-4-yl)-1H-pyrrole-2,5-dione]
0.1 to 19	Cc1nsc(-c2ccc(C)c(NCC(=O)N3CCc4c(OCC(C)(C)O)cccc43)c2)n1 [Example 12, 1-(4-(2-hydroxy-2-methylpropoxy)indolin-1-yl)-2-((2-methyl-5-(3-methyl-1,2,4-thiadiazol-5-yl)phenyl)amino)]
20 to 39	Cc1ccc(-c2nc(C3CC3)ns2)cc1NCC(=O)N1CCc2c(OCC(C)(C)O)cccc21 [Example 38, 2-((5-(3-cyclopropyl-1,2,4-thiadiazol-5-yl)-2-methylphenyl)amino)-1-(4-(2-hydroxy-2-methylpropoxy)-indolin-1-yl)ethan-1-one]
20 to 39	Cc1nsc(-c2ccc(C)c(NCC(=O)N3CCc4c(OCCOCCO)cccc43)c2)n1 [Example 31, 1-(4-(2-(2-hydroxyethoxy)-ethoxy)indolin-1-yl)-2-((2-methyl-5-(3-methyl-1,2,4-thiadiazol-5-yl)phenyl)-amino)ethan-1-one]
> 100	Cc1nsc(-c2ccc(C)c(NCC(=O)N3CCc4c3cncc4C(C)(C)O)c2)n1 [Example 91, 1-(4-(2-Hydroxypropan-2-yl)-2,3-dihydro-1H-pyrrolo[2,3-c]pyridin-1-yl)-2-((2-methyl-5-(3-methyl-1,2,4-thiadiazol-5-yl)phenyl)amino)ethan-1-one]
40 to 69	Cc1noc(-c2ccc(C)c(NCC(=O)N3CCc4c(OCC(C)(C)O)cccc43)c2)n1 [Example 49, 1-(4-(2-hydroxy-2-methylpropoxy)indolin-1-yl)-2-((2-methyl-5-(3-methyl-1,2,4-oxadiazol-5-yl)phenyl)amino)ethan-1-one]
20 to 39	Cc1noc(-c2ccc(F)c(NCC(=O)N3CCc4c3cccc4C(C)(C)O)c2)n1 [Example 53, 2-((2-fluoro-5-(3-methyl-1,2,4-oxadiazol-5-yl)phenyl)amino)-1-(4-(2-hydroxypropan-2-yl)-indolin-1-yl)ethan-1-one]
